Reference: paper PMC2994747, “Molecular Characterization of c-Abl/c-Src Kinase Inhibitors Targeted against Murine Tumour Progenitor Cells that Express Stem Cell Markers” (PLoS ONE, 2010)
Like-named read-outs stand apart in the source and are kept apart here.

Experiments:
A549 [1] = assay: MTS cell viability assay; format: cell-based, human
In short: (§1)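 Triplicate monolayer cultures receive dual kinase inhibitors or 0.2% DMSO for 24 h or 96 h. MTS absorbance at 490 nm, after 1 h incubation with reagent, serves as the viability measure.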

CaCo2 [2] = assay: MTS cell viability assay; format: cell-based, human
In short: as §1

HepG2 = assay: MTS cell viability assay; format: cell-based, human
In short: as §1

BetaD5 = assay: Western blot, semi-quantitative protein expression; format: cell-based, mouse
In short: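 Semi-quantitative western blot on cell lysates, 25 µg protein per SDS-PAGE lane, probed for c-Abl, Actin, Cdc2, EPS15, FAK, c-Fos, p38, p53, STAT5, c-Src/pSrc Y416, EGFR/pEGFR Y992/Y1045, hnRNP-K and p73. HRP-conjugated secondary detection; band intensities expressed relative to vehicle-treated control cells.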

A549 [3] = assay: Western blot, semi-quantitative protein expression; format: cell-based, human
Method: (§2) For the Western Blot analysis, cells were rinsed and lysed as previously described. An amount of 25 µg protein was used for SDS-PAGE. Antibodies for c-Abl (sc-131), Actin (sc-1616), Cdc2-p34 (sc-8395), EPS15 (sc-1840), FAK (sc-558), c-Fos (sc-52), p38 (sc-7972), p53 (sc-6243) and STAT5 (sc-835x) were obtained from Santa Cruz (Santa Cruz Biotechnology, Heidelberg, Germany), while c-Src (2109) and phospho-Src Y416 (2101) were purchased from Cell Signaling (Cell Signaling Technology, Frankfurt a. M., Germany). The EGFR (06-847), phospho-EGFR Y992 (07-821) and phospho-EGFR Y1045 (04-284) stem from Upstate (Upstate, Schwalbach, Germany) and the hnRNP-K (A300-676A) from Bethyl Labs (Bethyl Laboratories, Montgomery, Texas, USA). Finally p73 (IMG-246) was supplied by Imgenex (Imgenex, Hamburg, Germany). Depending on the primary antibody the secondary antibodies were either horseradish peroxidase-conjugated anti-mouse (AP 160P), anti-rabbit (AP 132P) or anti-sheep (AP 147P) (Chemicon, Schwalbach, Germany).
(§3) Semi-quantitative analysis were carried out with Kodak 1D Image Analysis Software in reference to the vehicle treated control cells (see supplementary table S7).

CaCo2 [4] = assay: Western blot, semi-quantitative protein expression; format: cell-based, human
Method: as §2, §3

[5] = tested on: murine and human cell lines; assay: Whole genome expression analysis, statements over several cell lines; format: cell-based
Method: The cells were harvested and RNA was isolated using RNeasy Mini Kit (Qiagen, Hilden, Germany) according to the instructions of the manufacturer. The isolated RNA (250 ng) was processed further using standard protocols as described recently with the exception of the 3′ IVT Express Kit (Affymetrix, High Wycombe, UK) that was utilized according to instructions. Quality control of cRNA was done with the Agilent 2100 Bioanalyzer (Agilent Tech according to manufacturer's protocols. Following fragmentation, cRNA of each sample was hybridized to Affymetrix GeneChip® Mouse Genome 430 2.0 or Human Genome U133 Plus 2.0 and scanned with an Affymetrix 3000 7G scanner.
The resultant data was normalized by Probe Logarithmic Intensity Error Estimation (PLIER) algorithm. Statistical analysis was carried out with the ArrayTrack software (National Center for Toxicological Research/FDA, Jefferson, AR, USA) using SAM algorithm.

[6] = 24 h, read-out: Calculated IC50 after single treatment for 24 h
[7] = 96 h, read-out: Calculated IC50 after daily treatment for 96 h

With `Fc1ccccc1CNc1ncnc2c1cnn2CC(Cl)c1ccc(Br)cc1` (centres unmarked) [Si162] the IC50 (A549 [1]; [6]) was 21.9 ± 2.7 µM, the IC50 (A549 [1]; [7]) was 5 µM and the IC50 (CaCo2 [2]; [6]) was > 100 µM. For the same compound, the IC50 (CaCo2 [2]; [7]) was 1.9 ± 0.2 µM, the IC50 (HepG2; [6]) was 34.7 ± 3.4 µM and the IC50 (HepG2; [7]) was 14.5 µM. For the same compound, the Actin protein expression (BetaD5) was 91, the “EGFR Y992-p protein expression” value (BetaD5) was 145 and the “EGFR Y1045-p protein expression” value (BetaD5) was 733. For the same compound, the EGFR protein expression (BetaD5) was 92, the EPS15 protein expression (BetaD5) was 554 and the FAK protein expression (BetaD5) was 124. The STAT5 protein expression (BetaD5) was 182, the c-Abl protein expression (BetaD5) was 24 and the c-Fos protein expression (BetaD5) was 122. The “c-Src Y416-p protein expression” value (BetaD5) was 36, the c-Src protein expression (BetaD5) was 110 and the hnRNP-K protein expression (BetaD5) was 20. For the same compound, the p38 protein expression (BetaD5) was 39, the p53 protein expression (BetaD5) was 443 and the “c-Src autophosphorylation (Tyr416), in words” value (BetaD5; IC50 concentration, 96 h) was “inhibition of c-Src autophosphorylation”. The Actin protein expression (A549 [3]) was 62, the Cdc2-p34 protein expression (A549 [3]) was 5.47 and the “EGFR Y1045-p protein expression” value (A549 [3]) was 7. The EGFR protein expression (A549 [3]) was 0.418, the EPS15 protein expression (A549 [3]) was 10 and the FAK protein expression (A549 [3]) was 46. The STAT5 protein expression (A549 [3]) was 17, the c-Abl protein expression (A549 [3]) was 8.56 and the c-Fos protein expression (A549 [3]) was 10. For the same compound, the c-Src protein expression (A549 [3]) was 49, the hnRNP-K protein expression (A549 [3]) was 39 and the p38 protein expression (A549 [3]) was 19. For the same compound, the p53 protein expression (A549 [3]) was 48, the p73 protein expression (A549 [3]) was 10 and the “c-Src autophosphorylation (Tyr416), in words” value (A549 [3]; IC50 concentration, 96 h) was “inhibition of c-Src autophosphorylation”. The Actin protein expression (CaCo2 [4]) was 116, the Cdc2-p34 protein expression (CaCo2 [4]) was 43 and the “EGFR Y992-p protein expression” value (CaCo2 [4]) was 178. The “EGFR Y1045-p protein expression” value (CaCo2 [4]) was 131, the EPS15 protein expression (CaCo2 [4]) was 42 and the FAK protein expression (CaCo2 [4]) was 52. The STAT5 protein expression (CaCo2 [4]) was 69, the c-Abl protein expression (CaCo2 [4]) was 114 and the c-Fos protein expression (CaCo2 [4]) was 35. The “c-Src Y416-p protein expression” value (CaCo2 [4]) was 213, the c-Src protein expression (CaCo2 [4]) was 88 and the hnRNP-K protein expression (CaCo2 [4]) was 62. For the same compound, the p38 protein expression (CaCo2 [4]) was 29, the p53 protein expression (CaCo2 [4]) was 55 and the p73 protein expression (CaCo2 [4]) was 43. For the same compound, the “Commonly regulated genes in both murine cell lines (number)” value ([5]; A2C12 and GammaA3, Fig. 4D) was 259 and the “Genes regulated in common amongst all three human cell lines (number)” value ([5]; A549, CaCo2, HepG2, Fig. 4B) was “two”.
